Data as given in PubChem BioAssay (NCI).
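Five concentrations, 48 hours, 96-well plates. At the GI50, growth is halved. TGI: total growth inhibition.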

Experiments:
Assay in all cases: growth of human tumour cells (NCI), 48 h
HOP-92 NSCLC = test system: HOP-92 NSCLC
HT29 colon = test system: HT29 colon
MOLT-4 leukemia = test system: MOLT-4 leukemia
SF-268 CNS = test system: SF-268 CNS
K-562 leukemia = test system: K-562 leukemia
A498 renal = test system: A498 renal
IGROV1 ovarian = test system: IGROV1 ovarian
SF-295 CNS = test system: SF-295 CNS
TK-10 renal = test system: TK-10 renal
HL-60(TB) leukemia = test system: HL-60(TB) leukemia
OVCAR-4 ovarian = test system: OVCAR-4 ovarian
HS 578T breast = test system: HS 578T breast
RXF 393 renal = test system: RXF 393 renal
OVCAR-3 ovarian = test system: OVCAR-3 ovarian
SK-MEL-5 melanoma = test system: SK-MEL-5 melanoma
SN12C renal = test system: SN12C renal
NCI-H226 lung = test system: NCI-H226 lung
HCC-2998 colon = test system: HCC-2998 colon
DU-145 prostate = test system: DU-145 prostate
UACC-257 melanoma = test system: UACC-257 melanoma
LOX IMVI melanoma = test system: LOX IMVI melanoma
COLO 205 colon = test system: COLO 205 colon
NCI-H522 lung = test system: NCI-H522 lung
KM12 colon = test system: KM12 colon
OVCAR-8 ovarian = test system: OVCAR-8 ovarian
HCT-15 colon = test system: HCT-15 colon
SK-MEL-2 melanoma = test system: SK-MEL-2 melanoma
NCI/ADR-RES ovarian = test system: NCI/ADR-RES ovarian
SK-OV-3 ovarian = test system: SK-OV-3 ovarian
786-0 renal = test system: 786-0 renal
EKVX NSCLC = test system: EKVX NSCLC
MDA-MB-231 breast = test system: MDA-MB-231 breast
T-47D breast = test system: T-47D breast
RPMI-8226 leukemia = test system: RPMI-8226 leukemia
A549 NSCLC = test system: A549 NSCLC
BT-549 breast = test system: BT-549 breast
HCT-116 colon = test system: HCT-116 colon
ACHN renal = test system: ACHN renal
MALME-3M melanoma = test system: MALME-3M melanoma
NCI-H460 lung = test system: NCI-H460 lung
SF-539 CNS = test system: SF-539 CNS
NCI-H23 lung = test system: NCI-H23 lung
CAKI-1 renal = test system: CAKI-1 renal
SW-620 colon = test system: SW-620 colon
MCF7 breast = test system: MCF7 breast
U251 CNS = test system: U251 CNS
HOP-62 NSCLC = test system: HOP-62 NSCLC
PC-3 prostate = test system: PC-3 prostate
SK-MEL-28 melanoma = test system: SK-MEL-28 melanoma
UACC-62 melanoma = test system: UACC-62 melanoma
OVCAR-5 ovarian = test system: OVCAR-5 ovarian
CCRF-CEM leukemia = test system: CCRF-CEM leukemia
SNB-75 CNS = test system: SNB-75 CNS
SNB-19 CNS = test system: SNB-19 CNS
MDA-MB-435 = test system: MDA-MB-435
M14 melanoma = test system: M14 melanoma
UO-31 renal = test system: UO-31 renal

Clc1cc(Cl)cc(Nc2ccc3cc(OCCCN4CCOCC4)ccc3n2)c1
GI50 (HOP-92 NSCLC): 1.63 µM
TGI (HOP-92 NSCLC): 5.01 µM
GI50 (HT29 colon): 1.56 µM
TGI (HT29 colon): 3.74 µM
GI50 (MOLT-4 leukemia): 1.77 µM
TGI (MOLT-4 leukemia): 5.81 µM
GI50 (SF-268 CNS): 2.9 µM
TGI (SF-268 CNS): > 100 µM
GI50 (K-562 leukemia): 1.58 µM
TGI (K-562 leukemia): 4.42 µM
GI50 (A498 renal): 1.93 µM
TGI (A498 renal): 8.78 µM
GI50 (IGROV1 ovarian): 3.47 µM
TGI (IGROV1 ovarian): > 100 µM
GI50 (SF-295 CNS): 1.66 µM
TGI (SF-295 CNS): 3.65 µM
GI50 (TK-10 renal): 2.88 µM
TGI (TK-10 renal): 8.21 µM
GI50 (HL-60(TB) leukemia): 2.57 µM
TGI (HL-60(TB) leukemia): 5.96 µM
GI50 (OVCAR-4 ovarian): 3.44 µM
TGI (OVCAR-4 ovarian): > 100 µM
GI50 (HS 578T breast): 1.99 µM
TGI (HS 578T breast): 5.43 µM
GI50 (RXF 393 renal): 1.51 µM
TGI (RXF 393 renal): 3.6 µM
GI50 (OVCAR-3 ovarian): 2.36 µM
TGI (OVCAR-3 ovarian): 6.4 µM
GI50 (SK-MEL-5 melanoma): 1.71 µM
TGI (SK-MEL-5 melanoma): 3.13 µM
GI50 (SN12C renal): 3.46 µM
TGI (SN12C renal): > 100 µM
GI50 (NCI-H226 lung): 3.76 µM
TGI (NCI-H226 lung): > 100 µM
GI50 (HCC-2998 colon): 1.73 µM
TGI (HCC-2998 colon): 3.31 µM
GI50 (DU-145 prostate): 3.05 µM
TGI (DU-145 prostate): > 100 µM
GI50 (UACC-257 melanoma): 1.96 µM
TGI (UACC-257 melanoma): 4.34 µM
GI50 (LOX IMVI melanoma): 1.62 µM
TGI (LOX IMVI melanoma): 3.05 µM
GI50 (COLO 205 colon): 1.78 µM
TGI (COLO 205 colon): 3.67 µM
GI50 (NCI-H522 lung): 2.08 µM
TGI (NCI-H522 lung): 5.22 µM
GI50 (KM12 colon): 2.23 µM
TGI (KM12 colon): 5.4 µM
GI50 (OVCAR-8 ovarian): 4.36 µM
TGI (OVCAR-8 ovarian): > 100 µM
GI50 (HCT-15 colon): 1.47 µM
TGI (HCT-15 colon): 4.15 µM
GI50 (SK-MEL-2 melanoma): 2.7 µM
TGI (SK-MEL-2 melanoma): 6.97 µM
GI50 (NCI/ADR-RES ovarian): 2.96 µM
TGI (NCI/ADR-RES ovarian): > 100 µM
GI50 (SK-OV-3 ovarian): 2.62 µM
TGI (SK-OV-3 ovarian): 7.24 µM
GI50 (786-0 renal): 1.58 µM
TGI (786-0 renal): 3.11 µM
GI50 (EKVX NSCLC): 3.39 µM
TGI (EKVX NSCLC): > 100 µM
GI50 (MDA-MB-231 breast): 1.81 µM
TGI (MDA-MB-231 breast): 4.27 µM
GI50 (T-47D breast): 3.01 µM
TGI (T-47D breast): 14.1 µM
GI50 (RPMI-8226 leukemia): 2.2 µM
TGI (RPMI-8226 leukemia): 7.08 µM
GI50 (A549 NSCLC): 3.93 µM
TGI (A549 NSCLC): > 100 µM
GI50 (BT-549 breast): 2.65 µM
TGI (BT-549 breast): 9.44 µM

COC(=O)c1cc(/C=C/c2ccc(S(N)(=O)=O)cc2)ccc1O
GI50 (HCT-116 colon): 20 µM
TGI (HCT-116 colon): > 100 µM
GI50 (ACHN renal): 29.6 µM
TGI (ACHN renal): > 100 µM
GI50 (HOP-92 NSCLC): 25.7 µM
TGI (HOP-92 NSCLC): > 100 µM
GI50 (HT29 colon): 64.5 µM
TGI (HT29 colon): > 100 µM
GI50 (MOLT-4 leukemia): 73.1 µM
TGI (MOLT-4 leukemia): > 100 µM
GI50 (MALME-3M melanoma): 34.5 µM
TGI (MALME-3M melanoma): > 100 µM
GI50 (SF-268 CNS): 37.3 µM
TGI (SF-268 CNS): > 100 µM
GI50 (K-562 leukemia): > 100 µM
TGI (K-562 leukemia): > 100 µM
GI50 (A498 renal): 0.0161 µM
TGI (A498 renal): 20.2 µM
GI50 (IGROV1 ovarian): 25.7 µM
TGI (IGROV1 ovarian): > 100 µM
GI50 (NCI-H460 lung): 27.5 µM
TGI (NCI-H460 lung): 66.4 µM
GI50 (SF-295 CNS): 26.5 µM
TGI (SF-295 CNS): > 100 µM
GI50 (TK-10 renal): 28.1 µM
TGI (TK-10 renal): > 100 µM
GI50 (HL-60(TB) leukemia): > 100 µM
TGI (HL-60(TB) leukemia): > 100 µM
GI50 (OVCAR-4 ovarian): 72.9 µM
TGI (OVCAR-4 ovarian): > 100 µM
GI50 (SF-539 CNS): 18.4 µM
TGI (SF-539 CNS): 47.4 µM
GI50 (HS 578T breast): 29.7 µM
TGI (HS 578T breast): 72.1 µM
GI50 (NCI-H23 lung): > 100 µM
TGI (NCI-H23 lung): > 100 µM
GI50 (RXF 393 renal): 43.4 µM
TGI (RXF 393 renal): > 100 µM
GI50 (CAKI-1 renal): 28.6 µM
TGI (CAKI-1 renal): > 100 µM
GI50 (OVCAR-3 ovarian): 16.5 µM
TGI (OVCAR-3 ovarian): 62.7 µM
GI50 (SK-MEL-5 melanoma): 14.5 µM
TGI (SK-MEL-5 melanoma): 35.5 µM
GI50 (SN12C renal): 29.3 µM
TGI (SN12C renal): 89.9 µM
GI50 (NCI-H226 lung): 21.4 µM
TGI (NCI-H226 lung): 52.9 µM
GI50 (SW-620 colon): 25.7 µM
TGI (SW-620 colon): > 100 µM
GI50 (HCC-2998 colon): 18 µM
TGI (HCC-2998 colon): 39.7 µM
GI50 (DU-145 prostate): 15.9 µM
TGI (DU-145 prostate): > 100 µM
GI50 (MCF7 breast): 30.7 µM
TGI (MCF7 breast): > 100 µM
GI50 (U251 CNS): 18.8 µM
TGI (U251 CNS): > 100 µM
GI50 (UACC-257 melanoma): 59.6 µM
TGI (UACC-257 melanoma): > 100 µM
GI50 (LOX IMVI melanoma): 30 µM
TGI (LOX IMVI melanoma): > 100 µM
GI50 (HOP-62 NSCLC): 41.7 µM
TGI (HOP-62 NSCLC): > 100 µM
GI50 (COLO 205 colon): 29.8 µM
TGI (COLO 205 colon): > 100 µM
GI50 (PC-3 prostate): 30.7 µM
TGI (PC-3 prostate): > 100 µM
GI50 (SK-MEL-28 melanoma): 95.5 µM
TGI (SK-MEL-28 melanoma): > 100 µM
GI50 (NCI-H522 lung): 20.2 µM
TGI (NCI-H522 lung): 69.6 µM
GI50 (KM12 colon): 24 µM
TGI (KM12 colon): > 100 µM
GI50 (OVCAR-8 ovarian): 27.3 µM
TGI (OVCAR-8 ovarian): > 100 µM
GI50 (UACC-62 melanoma): 25.6 µM
TGI (UACC-62 melanoma): 66 µM
GI50 (OVCAR-5 ovarian): 59.2 µM
TGI (OVCAR-5 ovarian): > 100 µM
GI50 (HCT-15 colon): 27 µM
TGI (HCT-15 colon): > 100 µM
GI50 (SK-MEL-2 melanoma): 66.8 µM
TGI (SK-MEL-2 melanoma): > 100 µM
GI50 (NCI/ADR-RES ovarian): 59.2 µM
TGI (NCI/ADR-RES ovarian): > 100 µM
GI50 (SK-OV-3 ovarian): > 100 µM
TGI (SK-OV-3 ovarian): > 100 µM
GI50 (786-0 renal): 7.35 µM
TGI (786-0 renal): > 100 µM
GI50 (CCRF-CEM leukemia): 41 µM
TGI (CCRF-CEM leukemia): > 100 µM
GI50 (SNB-75 CNS): 57 µM
TGI (SNB-75 CNS): > 100 µM
GI50 (EKVX NSCLC): 29.3 µM
TGI (EKVX NSCLC): > 100 µM
GI50 (SNB-19 CNS): 38.2 µM
TGI (SNB-19 CNS): > 100 µM
GI50 (MDA-MB-231 breast): 24.9 µM
TGI (MDA-MB-231 breast): 60.5 µM
GI50 (MDA-MB-435): 35.6 µM
TGI (MDA-MB-435): > 100 µM
GI50 (RPMI-8226 leukemia): 27.4 µM
TGI (RPMI-8226 leukemia): > 100 µM
GI50 (M14 melanoma): 35.3 µM
TGI (M14 melanoma): > 100 µM
GI50 (A549 NSCLC): 29.6 µM
TGI (A549 NSCLC): > 100 µM
GI50 (UO-31 renal): 29.1 µM
TGI (UO-31 renal): > 100 µM
GI50 (BT-549 breast): 16.3 µM
TGI (BT-549 breast): 56.2 µM
